Marks after values point to notes of the source that are not given here.
Assays:
[1] = test system: patients with MS (detrusor hyperreflexia); assay: separate study: RTX instillation in patients with MS; assay type: in vivo, human
Method: A separate study was undertaken with administration of 0.1 μM RTX to a group of 6 patients with MS. […] One patient was bedridden with an indwelling catheter. Despite the catheter, occasional bursts of detrusor hyperreflexia caused explosive expulsions of urine such that urine leaked around the catheter. No urinary dynamic measurements were taken but 100 ml of 1 μM solution was administered. […] The remaining four patients were all on crutches or in wheelchairs. They were on scheduled intermittent self-catheterizations and remained so.

[2] = test system: patients with MS (detrusor hyperreflexia); assay: as above; assay type: in vivo, human; design: LVA Lost volume after RTX / CAPA Capacity after RTX: unit not given here
[3] = test system: vanilloid receptor-mediated release of tachykinins in the rat urinary bladder; conditions: rat urinary bladder; cited from earlier work
[4] = test system: rat urinary bladders; conditions: anesthetized rats; repeated perfusions; cited from earlier work
[5] = four MS patients, one month after treatment

## C=C(C)[C@]12C[C@@H](C)[C@@]34O[C@](Cc5ccccc5)(O[C@@H]1[C@@H]3C=C(COC(=O)Cc1ccc(O)c(OC)c1)C[C@]1(O)C(=O)C(C)=C[C@@H]41)O2 [RTX, resiniferatoxin]
[1]; even at a dose of 1.0 μM RTX
  side effects: No side effects, particularly no meaningful burning or irritation were observed
[1]; [5]
  Capacity: increased in all patients
  urine loss pressure: decreased in all four although minimally in two
[2]; Patient 6, Dose 500 nM, one month after treatment, CAPB before RTX 200
  CAPA Capacity after RTX: 360
[2]; Patient 6, Dose 500 nM, one month after treatment, DB before RTX 2
  DA Drug after RTX: 01
[2]; Patient 6, Dose 500 nM, one month after treatment, LVB before RTX 60
  LVA Lost volume after RTX: 10
[2]; Patient 6, Dose 500 nM, one month after treatment, ULPB before RTX 96
  ULPA Urine loss pressure after RTX: 40
[2]; Patient 7 (stress incontinent), Dose 500 nM, one month after treatment, LVB 100
  LVA Lost volume after RTX: 80*
[2]; Patient 7, Dose 500 nM, one month after treatment, CAPB 180
  CAPA Capacity after RTX: 750
[2]; Patient 7, Dose 500 nM, one month after treatment, DB 2
  DA Drug after RTX: 1
[2]; Patient 7, Dose 500 nM, one month after treatment, ULPB 63
  ULPA Urine loss pressure after RTX: 36
[2]; Patient 9, Dose 1000 nM, one month after treatment, CAPB 100
  CAPA Capacity after RTX: 300
[2]; Patient 9, Dose 1000 nM, one month after treatment, DB 2
  DA Drug after RTX: 2
[2]; Patient 9, Dose 1000 nM, one month after treatment, LVB 180
  LVA Lost volume after RTX: 0
[2]; Patient 9, Dose 1000 nM, one month after treatment, ULPB 32
  ULPA Urine loss pressure after RTX: 30
[2]; Patient 10, Dose 1000 nM, one month after treatment, CAPB 280
  CAPA Capacity after RTX: 460
[2]; Patient 10, Dose 1000 nM, one month after treatment, DB 2
  DA Drug after RTX: 2
[2]; Patient 10, Dose 1000 nM, one month after treatment, LVB 180
  LVA Lost volume after RTX: 0
[2]; Patient 10, Dose 1000 nM, one month after treatment, ULPB 46
  ULPA Urine loss pressure after RTX: 44
[2]; bedridden MS patient, 100 ml of 1 μM solution, six weeks
  urge and leakage around indwelling catheter: no urge and no leakage
[2]; [5]
  Urinary loss: decreased after instillation of RTX in all four patients
[3]
  desensitization to repeated doses: Desensitization to repeated doses of RTX was observed
  potency relative to CAP: 1000 times
[4]
  desensitizing effect of bladder perfusion: desensitization was occurring

Source: patent US20040039052A1, “Urinary incontinence therapy” (priority 1997, published 2004)
